Columns and labels:
Assay type in all cases: in vivo
[1] = test system: Plutella xylostella (Diamond Back Moth); experiment: Example B4: Plutella xylostella (diamond back moth), 24-well artificial diet, eggs; details: 192 h, application rate of 200 ppm, pipetting, 8 days after infestation, in comparison to untreated samples, read-out: effect in at least one of the two categories (mortality or growth inhibition)
Method: Example B4: Plutella xylostella (Diamond Back Moth)
24-well microtiter plates with artificial diet were treated with aqueous test solutions prepared from 10′000 ppm DMSO stock solutions by pipetting. After drying, Plutella eggs were pipetted through a plastic stencil onto a gel blotting paper and the plate was closed with it. The samples were assessed for mortality and growth inhibition in comparison to untreated samples 8 days after infestation. The following compounds gave an effect of at least 80% in at least one of the two categories (mortality or growth inhibition) at an application rate of 200 ppm: […]

[2] = test system: Chilo suppressalis (Striped Rice Stemborer); experiment: Example B3: Chilo suppressalis (striped rice stemborer), artificial diet, L2 larvae; details: 144 h, application rate of 200 ppm, pipetting, 6 days after infestation, in comparison to untreated samples, read-out: control (at least one of mortality, anti-feedant effect, growth inhibition)
Method: Example B3: Chilo suppressalis (Striped Rice Stemborer)
24-well microtiter plates with artificial diet were treated with aqueous test solutions prepared from 10′000 ppm DMSO stock solutions by pipetting. After drying, the plates were infested with L2 larvae (6-8 per well). The samples were assessed for mortality, anti-feeding effect, and growth inhibition in comparison to untreated samples 6 days after infestation. Control of Chilo suppressalis by a test sample is given when at least one of the categories mortality, anti-feedant effect, and growth inhibition is higher than the untreated sample.

[3] = test system: Diabrotica Balteata (Corn Root Worm); experiment: Example B1: Diabrotica balteata (corn root worm), maize sprouts sprayed, L2 larvae; details: 96 h, application rate of 200 ppm, 4 days after infestation, in comparison to untreated samples, read-out: effect in at least one of the two categories (mortality or growth inhibition)
Method: Example B1: Diabrotica Balteata (Corn Root Worm)
Maize sprouts placed onto an agar layer in 24-well microtiter plates were treated with aqueous test solutions prepared from 10′000 ppm DMSO stock solutions by spraying. After drying, the plates were infested with L2 larvae (6 to 10 per well). The samples were assessed for mortality and growth inhibition in comparison to untreated samples 4 days after infestation.
The following compounds gave an effect of at least 80% in at least one of the two categories (mortality or growth inhibition) at an application rate of 200 ppm: […]

[4] = test system: Spodoptera littoralis (Egyptian Cotton Leaf Worm); experiment: Example B5: Spodoptera littoralis (Egyptian cotton leaf worm), cotton leaf discs sprayed, L1 larvae; details: foliar, 72 h, application rate of 200 ppm, 3 days after infestation, in comparison to untreated samples, read-out: control (at least one of mortality, anti-feedant effect, growth inhibition)
Method: Example B5: Spodoptera littoralis (Egyptian Cotton Leaf Worm)
Cotton leaf discs were placed onto agar in 24-well microtiter plates and sprayed with aqueous test solutions prepared from 10′000 ppm DMSO stock solutions. After drying the leaf discs were infested with five L1 larvae. The samples were assessed for mortality, anti-feeding effect, and growth inhibition in comparison to untreated samples 3 days after infestation. Control of Spodoptera littoralis by a test sample is given when at least one of the categories mortality, anti-feedant effect, and growth inhibition is higher than the untreated sample.

[5] = test system: Plutella xylostella (Diamondback Moth); experiment: Example B7: Plutella xylostella (diamondback moth), 96-well artificial diet, eggs; details: 216 h, application rate of 500 ppm, eggs (~30 per well), 9 days after infestation, read-out: control (samples assessed for mortality)
Method: Example B7: Plutella xylostella (Diamondback Moth)
96-well microtiter plates containing artificial diet were treated with aqueous test solutions, prepared from 10′000 ppm DMSO stock solutions, by a liquid handling robot. After drying, eggs (˜30 per well) were infested onto a netted lid which was suspended above the diet. The eggs hatch and L1 larvae move down to the diet. The samples were assessed for mortality 9 days after infestation.

C[C@@H](c1ncnn1-c1ccc(C#N)cn1)N(C)c1nnc2c(C(F)(F)F)cc(C(F)(F)F)cn12 [Compound P1, 6-[5-[(lS)-1-[[6.8-bis(trifluoromethyl)-[1,2,4]triazolo[4,3-a]pyridin-3-yl]-methyl-amino]ethyl]-1,2,4-triazol-1-yl]pyridine-3-carbonitrile]
≥ 80%: percent effect (mortality or growth inhibition) at 200 ppm [1] | percent control (mortality, anti-feedant effect or growth inhibition) at 200 ppm [2] | percent effect (mortality or growth inhibition) at 200 ppm [3]

C[C@H](Nc1nnc2c(C(F)(F)F)cc(C(F)(F)F)cn12)c1ncnn1-c1ccc(C#N)cn1 [Compound P2, 6-[5-[(1S)-1-[[6,8-bis(trifluoromethyl)-[1,2,4]triazolo[4,3-a]pyridin-3-yl]amino]ethyl]-1,2,4-triazol-1-yl]pyridine-3-carbonitrile]
≥ 80%: percent effect (mortality or growth inhibition) at 200 ppm [1] | percent control (mortality, anti-feedant effect or growth inhibition) at 200 ppm [2] | percent effect (mortality or growth inhibition) at 200 ppm [3] | percent control (mortality, anti-feedant effect or growth inhibition) at 200 ppm [4]

CC(Nc1nnc2c(C(F)(F)F)cc(C(F)(F)F)cn12)c1ncnn1-c1ccc(C#N)cn1 (stereo not shown) [Compound P3, 6-[5-[1-[[6,8-bis(trifluoromethyl)-[1,2,4]triazolo[4,3-a]pyridin-3-yl]amino]ethyl]-1,2,4-triazol-1-yl]pyridine-3-carbonitrile]
≥ 80%: percent effect (mortality or growth inhibition) at 200 ppm [1] | percent control (mortality, anti-feedant effect or growth inhibition) at 200 ppm [2] | percent effect (mortality or growth inhibition) at 200 ppm [3] | percent control (mortality, anti-feedant effect or growth inhibition) at 200 ppm [4]

CC(Nc1nnc2c(C(F)(F)F)cc(C(F)(F)F)cn12)c1ncnn1-c1ccc(Br)cn1 (stereo not shown) [Compound P4, N-[1-[2-(5-bromo-2-pyridyl)-1,2,4-triazol-3-yl]ethyl]-6,8-bis(trifluoromethyl)-[1,2,4]triazolo[4,3-a]pyridin-3-amine]
≥ 80%: percent effect (mortality or growth inhibition) at 200 ppm [1] | percent control (mortality, anti-feedant effect or growth inhibition) at 200 ppm [2] | percent effect (mortality or growth inhibition) at 200 ppm [3] | percent control (mortality, anti-feedant effect or growth inhibition) at 200 ppm [4]

CC(Nc1nnc2c(C(F)(F)F)cc(Br)cn12)c1ncnn1-c1ccc(Br)cn1 (stereo not shown) [Compound P5, 6-bromo-N-[1-[2-(5-bromo-2-pyridyl)-1,2,4-triazol-3-yl]ethyl]-8-(trifluoromethyl)-[1,2,4]triazolo[4,3-a]pyridin-3-amine]
≥ 80%: percent effect (mortality or growth inhibition) at 200 ppm [1] | percent control (mortality, anti-feedant effect or growth inhibition) at 200 ppm [2] | percent effect (mortality or growth inhibition) at 200 ppm [3]

CC(Nc1nnc2c(C(F)(F)F)cc(Br)cn12)c1ncnn1-c1ccc(C#N)cn1 (stereo not shown) [Compound P6, 6-[5-[1-[[6-bromo-8-(trifluoromethyl)-[1,2,4]triazolo[4,3-a]pyridin-3-yl]amino]ethyl]-1,2,4-triazol-1-yl]pyridine-3-carbonitrile]
≥ 80%: percent effect (mortality or growth inhibition) at 200 ppm [1] | percent control (mortality, anti-feedant effect or growth inhibition) at 200 ppm [2] | percent control (mortality, anti-feedant effect or growth inhibition) at 200 ppm [4]

CC(Nc1nnc2c(C(F)(F)F)cc(Br)cn12)c1ncnn1-c1ncccn1 (stereo not shown) [Compound P7, 6-bromo-N-[1-(2-pyrimidin-2-yl-1,2,4-triazol-3-yl)ethyl]-8-(trifluoromethyl)-[1,2,4]triazolo[4,3-a]pyndin-3-amine]
≥ 80%: percent control (mortality, anti-feedant effect or growth inhibition) at 200 ppm [2]

CC(Nc1nnc2c(Cl)cc(C(F)(F)F)cn12)c1ncnn1-c1ccc(C#N)cn1 (stereo not shown) [Compound P8, 6-[5-[1-[[8-chloro-6-(trifluoromethyl)-[1,2,4]triazolo[4,3-a]pyridin-3-yl]amino]ethyl]-1,2,4-triazol-1-yl]pyridine-3-carbonitrile]
≥ 80%: percent effect (mortality or growth inhibition) at 200 ppm [1] | percent control (mortality, anti-feedant effect or growth inhibition) at 200 ppm [2] | percent effect (mortality or growth inhibition) at 200 ppm [3] | percent control (mortality, anti-feedant effect or growth inhibition) at 200 ppm [4]

CC(Nc1nnc2c(Cl)cc(C(F)(F)F)cn12)c1ncnn1-c1ncccn1 (stereo not shown) [Compound P9, 8-chloro-N-[1-(2-pyrimidin-2-yl-1,2,4-triazol-3-yl)ethyl]-6-(trifluoromethyl)-[1,2,4]triazolo[4,3-a]pyridin-3-amine]
≥ 80%: mortality at 500 ppm [5] | percent control (mortality, anti-feedant effect or growth inhibition) at 200 ppm [2]
